Laboratory results taken from US20230233684A1, “USE OF CHELATORS FOR THE PREVENTION OF VISIBLE PARTICLE FORMATION IN PARENTERAL PROTEIN SOLUTIONS” (Hoffmann-La Roche Inc., priority 2020, published 2023).
Read-outs that look alike come from different tables or passages of the source. One block for each compound: values may come before it.

Legend:
Type in all cases: physicochemical
[1] = Solubility of free fatty acids in histidine acetate buffer pH 5.5, visible particles by Seidenader; details: kinetic from dmso stock
Method: In brief, lauric acid (“LA”. Sigma-Aldrich/Merck, Darmstadt, DE) and myristic acid (“MA”, Sigma-Aldrich/Merck, Darmstadt, DE) were suspended in PS20 HP (Croda, Edison, N.J., USA) and stirred (150 rpm) for 30 min at 60° C. until both FFAs were fully dissolved. Solutions were diluted 1:5 with pre-warmed (60° C.) water for injection (WFI) and immediately filtered through 0.22 μm PVDF Steriflip filters (Merck Millipore, Darmstadt, DE). The concentration of LA and MA in FFA stock solutions was verified by LC-MS as described by Honemann et al. (Honemann et al. 2019) LA/MA/PS20 stock solutions were spiked into 20 mM histidine acetate buffer pH 5.5 (1:500 dilution, n=3) and homogenized on a MaxQ™ 4000 Benchtop Orbital Shaker (Thermo Scientific™, Waltham, Mass., USA) for 1 hour at 25° C. Samples were stored at 5° C. and analyzed for visible particles after 0, 1, 7 and 28 days using a black/white panel according Ph. Eur. 2.9.20 (European Directorate for the Quality of Medicines) and a Seidenader V 90-T instrument (Seidenader Maschinenbau GmbH, Markt Schwaben, DE). […]
Free fatty acid (FFA) stock solutions of lauric acid (LA) and myristic acid (MA) were spiked into 20 mM histidine acetate buffer pH 5.5 (n=3). Samples were analyzed for the presence of visible particles after incubation at 2-8° C. for 0, 1 day, 7 days and 28 days using the (A) Seidenader and (B) E/P box.

[2] = FFA particle nucleation by DLS: interaction of bi- and trivalent cations with lauric acid; details: for FFA salt particle formation and growth (DLS): metal ion 0-30 μM, 70 hours, 5° C.
Method: DLS experiments were performed on DynaPro(R) plate reader (Wyatt, Santa Barbara, Calif.). The DLS plate reader is flushed with nitrogen 5 hours before commencing the measurements and cooled down to 5° C. during the entire duration of the measurements. 200 μL of sample solutions comprising of 20 μg lauric acid (LA) in 20 mM L-Histidine buffer at pH 6.0 supplemented with 6% v/v DMSO, and varying amounts of metal ions (Al^3+, Fe^3, Zn^2+, Mg^2+, Ca^2+, Ni^2+) were mixed in the cuvettes of black glass bottom 96 well plates (Greiner Bio-One GmbH, Frickenhausen, Germany). FFA nucleation and particle growth were measured over 40-70 hours using a 633 nm laser and a backscatter detection system at 158°. The hydrodynamic particle radius (rH) was determined by fitting a cumulant fit to the obtained auto-correlation function. […] The laser power was adjusted before each measurement sequence and kept constant during the entire measurement. The attenuation level was set to zero for all measurements in order to collect the maximum amount of scattered light. Aluminium (Al), Iron (Fe), Zink (Zn), Magnesium (Mg), Calcium (Ca) and Nickel (Ni) stock solutions were prepared at 4 mM in Milli-Q water pH 2.5 from their respective salts and stored at 2-8° C. until used. Diluted sample solutions (100×) were freshly prepared in Milli-Q water pH 2.5. The DLS assay buffer was added to the salt sample solutions to attain metal ion target concentrations of 0, 1, 3, 10 and 30 μM. Particles size (rH) and intensity were measured over a period of 70 h as described above.

[3] = FFA particle nucleation by DLS: impact of aluminum concentration on particle kinetics; details: 20 ppb Al; 5° C.; not captured in the 40 hours experiment
Method: DLS experiments were performed on DynaPro(R) plate reader (Wyatt, Santa Barbara, Calif.). The DLS plate reader is flushed with nitrogen 5 hours before commencing the measurements and cooled down to 5° C. during the entire duration of the measurements. 200 μL of sample solutions comprising of 20 μg lauric acid (LA) in 20 mM L-Histidine buffer at pH 6.0 supplemented with 6% v/v DMSO, and varying amounts of metal ions (Al^3+, Fe^3, Zn^2+, Mg^2+, Ca^2+, Ni^2+) were mixed in the cuvettes of black glass bottom 96 well plates (Greiner Bio-One GmbH, Frickenhausen, Germany). FFA nucleation and particle growth were measured over 40-70 hours using a 633 nm laser and a backscatter detection system at 158°. The hydrodynamic particle radius (rH) was determined by fitting a cumulant fit to the obtained auto-correlation function. […]
Al sample solutions (100×) in 20 mM Histidine buffer pH 6.0 were prepared from a sterile 50 ppm Al stock solution (20 mM Glycine pH 2.5) and were spiked into the DLS assay buffer at target concentrations of 0, 20, 40, 60 and 100 ppb Al. Particle nucleation and growth was measured over a period of 40 hours as described above.
Quantitative analysis was performed by analyzing the intensity of the scattered laser light of the FFA particles over time by fitting a sigmoidal Boltzmann function to the growth curves. […]

[4] = Spiking study with free fatty acids and aluminum, visible particles by Seidenader (Table 4A); details: Seidenader results
Method: A 100 ppm aluminum stock solution was prepared from aluminum chloride hexahydrate in 20 mM histidine acetate pH 5.5. The actual concentration of aluminum was determined by inductively-coupled plasma mass spectrometry (ICP-MS). This stock solution was then diluted to 10 ppm Al^3+ and sterile-filtered through a 0.22 μm porosity filter cartridge (Sterivex-GV, Millipore).
All vials were sealed with 20 mm teflonized injection stoppers (D777-1, Daikyo) and aluminum crimp caps and homogenized on a MaxQ™ 4000 Benchtop Orbital Shaker (Thermo Scientific™, Waltham, Mass., USA) for 1 hour at 25° C.
LAMA-10 only comprised polysorbate 20 and was used for the preparation of negative controls. All samples were prepared in triplicates.
Samples were stored at 5° C. and the formation of visible particles was assessed for up to 28 days using a black/white and a Seidenader V 90-T instrument (Seidenader Maschinenbau GmbH, Markt Schwaben, DE) as described above.
Samples were analyzed for the presence of visible particles after storage at 2-8° C. for 0, 1 day, 7 days and 28 days using the (A) Seidenader and (B) E/P box.

[5] = FFA metal nucleation by DLS in presence of DTPA, Fe nucleation study
Method: (§1) DLS experiments were performed on DynaPro(R) plate reader (Wyatt, Santa Barbara, Calif.). The DLS plate reader is flushed with nitrogen 5 hours before commencing the measurements and cooled down to 5° C. during the entire duration of the measurements. 200 μL of sample solutions comprising of 20 μg lauric acid (LA) in 20 mM L-Histidine buffer at pH 6.0 supplemented with 6% v/v DMSO, and varying amounts of metal ions (Al^3+, Fe^3, Zn^2+, Mg^2+, Ca^2+, Ni^2+) were mixed in the cuvettes of black glass bottom 96 well plates (Greiner Bio-One GmbH, Frickenhausen, Germany). FFA nucleation and particle growth were measured over 40-70 hours using a 633 nm laser and a backscatter detection system at 158°. The hydrodynamic particle radius (rH) was determined by fitting a cumulant fit to the obtained auto-correlation function. The lower and upper boundary for the cumulant fit was set to lag times τ of 10 μs and 1000 μs respectively. The laser power was adjusted before each measurement sequence and kept constant during the entire measurement. The attenuation level was set to zero for all measurements in order to collect the maximum amount of scattered light.
For the Al nucleation study, a metal ion target concentration of 2 μM was used. […] For the Fe nucleation study, the target concentration of Fe was 4 μM. The final concentration of DTPA was either 0, 0.04, 0.4, 2.0, 4.0 or 40 μM resulting in molar ratios (DTPA:Fe) of 0, 0.01, 0.1, 0.5, 1.0 and 10, respectively. DLS measurements were conducted over 50 hours at 5° C. as described above.

[6] = Spiking study with different PS20 and PS80 grades, aluminum and DTPA, visible particles by Seidenader (Table 11); details: DTPA, 250 ppb aluminum, independent of PS grade or enzyme
Method: (§2) Super refined (SR) PS20 and PS80, high purity (HP) PS20 and PS80, as well as pure oleic acid (POA) PS80 were enzymatically hydrolyzed by 10% using immobilized enzymes (Graf et al. 2020) (mucor miehei lipase (MML), Candida antarctica lipase (CAL) and Candida antarctica lipase B (CALB)). […] Diluted aluminum solutions comprising in 20 mM histidine acetate pH 5.5 were prepared as described above and filled into 20 mL type I borosilicate glass vials (Schott, Mainz, DE). Samples containing either 0 or 250 ppb of aluminum (Al^3) were spiked with different PS stock solutions (HP PS20, SR PS20, HP PS80, SR PS80, POA PS80; degradation level of 0 or 10%). In addition, samples containing 250 ppb aluminum were supplemented with 0.05 mM diethylenetriaminepentaacetic acid (DTPA) prior spiking with partially degraded PS. Vials were sealed with 20 mm teflonized injection stoppers (D777-1, Daikyo) and aluminum crimp caps and homogenized on a MaxQTM 4000 Benchtop Orbital Shaker (Thermo ScientificTM, Waltham, Mass., USA) for 1 hour at 25° C. […] Different grades of non-degraded polysorbate 20 and 80 served as negative controls. All samples were prepared in triplicates. Samples were stored at 5° C. and particle formation was assessed for up to 22 days by visual inspection using a black/white panel according Ph. Eur. 2.9.20. and enhanced visual inspection ([…] instrument) as described above.

[7] = FFA metal nucleation by DLS in presence of DTPA and real glass leachables; details: lauric acid and real glass leachables
Method: as §1
Representative glass leachables solutions were prepared according to a procedure disclosed in Allmendinger et al. (Allmendinger et al. 2021). […]

[8] = Spiking study with different PS20 and PS80 grades, aluminum and DTPA, visible particles by E/P (Table 10); details: 50 μM DTPA, 250 ppb aluminum, all grades of PS
Method: as §2

[9] = Spiking study with partially degraded polysorbate 20 and aluminum, visible particles by E/P box; details: 0.05 mM DTPA or 0.005% (w/v) EDTA; 250 ppb aluminum; partially degraded polysorbate below the solubility limit
Method: Diluted aluminum solutions comprising in 20 mM histidine acetate pH 5.5 were prepared as described above and filled into 20 mL type I borosilicate glass vials (Schott, Mainz, DE). […] Vials were sealed with 20 mm teflonized injection stoppers (D777-1, Daikyo) and aluminum crimp caps and homogenized on a MaxQ™ 4000 Benchtop Orbital Shaker (Thermo Scientific™, Waltham, Mass., USA) for 1 hour at 25° C.
PS20-Std only comprised non-degraded polysorbate 20 and was used for the preparation of negative controls. All samples were prepared in triplicates.
Samples were stored at 5° C. and particle formation was assessed for up to 28 days by visual inspection using a black/white panel according Ph.
Samples were visually inspected (E/P box) for the presence of visible particles after incubation for 0, 1 day, 7 days and 28 days at 2-8° C.

- solubility at 28 days ([1]; 5 °C, pH 5.5, aqueous with cosolvent or surfactant or cyclodextrin): < 5 µg/mL
SMILES: CCCCCCCCCCCCCC(=O)O [myristic acid]

- Hydrodynamic particle radius rH ([2]; instant particle formation, no further increase over time): 50-60 nm
- FFA salt particle formation and growth (DLS) [2]: particle formation and growth
SMILES: [Fe+3] [Fe]

SMILES: [Ni+2] [Ni]
- FFA salt particle formation and growth (DLS) [2]: did not lead to FFA salt particle formation or growth

- Trace amount of aluminum sufficient to complex free fatty acids and form visible particles [4]: 10 ppb
- FFA salt particle formation and growth (DLS) [2]: particle formation and growth
SMILES: [Al+3] [Al]
- Inflection point of the sigmoidal curve fit of scattering intensity [3]: around 65 hours

- Particle radius ([5]; DTPA to Fe ratio of 0.5): only slightly changed
- Scattering intensity ([5]; DTPA to Fe ratio of 0.5): significantly decreased
- Particle formation and growth (DLS) ([5]; equimolar amounts of DTPA, lauric acid and 4 μM Fe): complete suppression
- Particle formation in presence of the chelator [6]: significantly mitigated
- Molar ratio of chelator to Al efficient in mitigating particle formation [7]: at least 1.5
- Visible particles in presence of the chelator [8]: no particles were observed
- Formation of visible FFA particles on addition of chelator [9]: successfully prevented
SMILES: O=C(O)CN(CCN(CC(=O)O)CC(=O)O)CCN(CC(=O)O)CC(=O)O [DTPA, Diethylenetriaminepentaacetic acid]

SMILES: CCCCCCCCCCCC(=O)O [lauric acid]
- solubility at 28 days ([1]; 20 mM histidine acetate buffer with 0.04% PS20, 5 °C, aqueous with cosolvent or surfactant or cyclodextrin, lauric and myristic acid together, histidine acetate buffer pH 5.5, 0.04% PS20, 2-8° C., 28 days, Seidenader and E/P box, read-out: Solubility limit (concentration at which free fatty acids exceeded the solubility limit)): < 12.5 µg/mL

SMILES: [Mg+2] [Mg]
- FFA salt particle formation and growth (DLS) [2]: did not lead to FFA salt particle formation or growth

SMILES: [Ca+2] [Ca]
- FFA salt particle formation and growth (DLS) [2]: did not lead to FFA salt particle formation or growth

SMILES: [Zn+2] [Zn]
- FFA salt particle formation and growth (DLS) [2]: did not lead to FFA salt particle formation or growth
